{
  "source": "patent US20260364213A1",
  "about": "“RADIOLABELED COMPOUNDS OF TRIMETHOPRIM AND USES THEREOF” (THE TRUSTEES OF THE UNIVERSITY OF PENNSYLVANIA, priority 2023, published 2026)",
  "key": {"I45 cells": {"test_system": "I45 cells", "assay": "Cytotoxicity in I45 cells with subcellular eDHFR-YFP", "assay_type": "cell-based, human", "details": "for RBE: ref. cytoplasmic", "procedure": "(§1) Wild-type and eDHFR-YFP-expressing I45 and SKOV3 cells were seeded on 96-well plates (Corning #3603) at the density of 1,000 cells/well and 3,000 cells/well, respectively, in complete growth media 24 hours before the assay. The following five treatment conditions were applied in complete growth media: 200 μCi/mL ~15 μCi/mL [^211At]At-TMP, 120 μCi/mL-15 μCi/mL free ^211At, 120 μCi/mL-15 μCi/mL [^211At]At-TMP+10 μM TMP, 10 nM-1 μM doxorubicin, and 40 μM−1 mM TMP. After 72 hours of incubation, the surviving fraction of the cells was quantified using CellTiter-Glo (Promega #G9243). See, Makvandi, Molecular cancer therapeutics. 2019; 18(7):1195-204. The assay was performed three times in triplicates. The effective concentration for 50% cell death (EC50) was determined for each treatment condition by fitting the surviving fractions into a non-linear sigmoidal dose-response curve. For eDHFR-YFP-positive cells, the [^211At]At-TMP treatment concentrations were converted to the number of ^211At decays/cell, using the median number of receptors/cell (obtained from YFP fluorescence) and Kd of [^211At]At-TMP. See, Lee, Journal of nuclear medicine. 2020; 61(6):850-6.\n(§2) For comparison to the nuclear S-values, the observed cytotoxicity per ^211At decay was also expressed relative to cytoplasmic eDHFR-YFP. […] Finally, the ratio between the isolated cytotoxicity and nuclear S-value was calculated as the RBE for eDHFR-YFP in each subcellular compartment.\n(§3) Supplemental Method 2. Calculation of the relative cytotoxicity of ^211At decay in different subcellular compartments. • By the linear-quadratic model for targeted alpha therapy,\n(§4) (Survival)=e^−αD-βD^2≈e^−αD • Let N=number of ^211At decays/cell at EC50. Then, the following is obtained:\n(§5) ln(0.5)=−αD=−TN • where T is the product of S-value and α, representing cytotoxicity per decay. Let F=fraction of eDHFR in each subcellular compartment. Then, the following can be written:\n(§6) [formula] • where capital letters denote the microscopically observed subcellular location of eDHFR and lowercase letters denote the genetically targeted location of eDHFR.\n(§7) The measured values of F (FIG. 19) and N (FIG. 28C) were then used to solve for T. DNA-targeted eDHFR observed in the nucleus is assumed to be 100% DNA-bound, and for SKOV3, Nc≈Nm is applied based on the lack of significant difference in EC50.\n(§8) Finally, the T values are normalized with Tc to obtain the relative cytotoxicity of ^211At decay in each subcellular compartment compared to the cytoplasm."}, "SKOV3 cells": {"test_system": "SKOV3 cells", "assay": "Cytotoxicity in SKOV3 cells with subcellular eDHFR-YFP", "assay_type": "cell-based, human", "details": "for RBE: ref. cytoplasmic", "procedure": "as §1, §2, §3, §4, §5, §6, §7, §8"}, "I45 and SKOV3 cells": {"test_system": "I45 and SKOV3 cells", "assay": "Cytotoxicity in wild-type and eDHFR-YFP-expressing I45 and SKOV3 cells", "assay_type": "cell-based, human", "procedure": "After 72 hours of incubation, the surviving fraction of the cells was quantified using CellTiter-Glo (Promega #G9243). See, Makvandi, Molecular cancer therapeutics. […] The assay was performed three times in triplicates. […] See, Lee, Journal of nuclear medicine."}, "[1]": {"assay": "In vitro stability in RPMI 1640 medium", "assay_type": "physicochemical", "details": "37 °C, up to 6 hours, radio-HPLC", "procedure": "The specific activity of [^211At]At-TMP and [^125I]I-TMP was determined by comparison of radioactivity to the area under 288-nm ultraviolet light peak on radio-HPLC. The in vitro stability of [^211At]At-TMP was examined with incubation in Roswell Park Memorial Institute (RPMI) 1640 medium at 37 °C for up to 6 hours, followed by radio-HPLC analysis."}, "eDHFR-YFP": {"target": "T1, eDHFR-YFP (Escherichia coli, UniProt P0ABQ4)", "T1 sequence (P0ABQ4 1-159)": "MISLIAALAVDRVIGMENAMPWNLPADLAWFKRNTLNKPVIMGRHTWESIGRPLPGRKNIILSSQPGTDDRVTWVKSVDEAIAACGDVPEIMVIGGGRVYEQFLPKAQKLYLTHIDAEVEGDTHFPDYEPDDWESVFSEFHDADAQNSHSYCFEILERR", "assay": "Radioligand binding to eDHFR-YFP expressing cells", "design": "species or system E. coli", "procedure": "Due to the high specific activity of [^211At]At-TMP that limits its working concentration to pM range, [^125I]I-TMP was used for saturation binding studies to determine Bmax.\neDHFR-YFP-positive I45 and SKOV3 cells were plated on 96-well plates (Corning #9102) at the density of 25,000 cells/well and 40,000 cells/well, respectively, in complete growth media 24 hours before the assay. […] After incubation at 37 °C for 90 minutes, the wells were aspirated and washed twice with ice-cold PBS. The radioactivity in each well was measured with a Perkin Elmer Wizard gamma counter. The assay was performed three times in triplicates. […] See, Swillens, Molecular pharmacology. 1995; 47(6):1197-203. The corresponding EC50 values were plotted against the receptor concentration/2 to determine the Kd. See, Hulme, British journal of pharmacology. 2010; 161(6):1219-37. The Bmax values were correlated with the total YFP florescence from the wells, with a correction factor of 2.5 and 2.2 for membrane-bound eDHFR-YFP in I45 and SKOV3, respectively, in order to account for decreased fluorescence per molecule from addition of the membrane localization signal to YFP. See, Wu, Science. 2005; 310(5746):310-4; and Bakholdina, Molecules. 2021; 26(13).\nFor determination of the Kd of [^211At]At-TMP, the binding assay protocol was repeated in I45 and SKOV3 cells expressing cytoplasmic eDHFR-YFP, using 150 μL of 0.06-60 nM [^125I]I-TMP±10 μM TMP for half of each 96-well plate and 50-260 μL of […] [^211At]At-TMP±10 μM TMP for the remaining half. The Bmax of each plate determined from [^125I]I-TMP binding was divided by the assay volumes used for [^211At]At-TMP to calculate the total receptor concentration ([RT]) in each [^211At]At-TMP well. The ligand depletion (δ) in each [^211At]At-TMP well was obtained by dividing the bound radioactivity by total added radioactivity. The assay was performed four times in triplicates. As derived in Supplemental Methods 1, δ^−1 was plotted against [RT]^−1 to determine the Kd as the slope of the linear best-fit line.\nSupplemental Method 1. Measurement of the dissociation constant (Kd) of [^211At]At-TMP binding to eDHFR under non-saturating, ligand-depleting conditions. When [Ligand]<<Kd, ligand depletion (6) at equilibrium is\nwhere [R] is the free receptor concentration and [RT]is the total receptor concentration. Since 6 is non-zero, taking the reciprocal of both sides of the equation yields\n[formula] • If a δ^−1 vs. [RT]^−1 graph where y=δ^−1 and x=[RT]^−1 is plot,\nTherefore, the slope of the linear best-fit line represents the Kd and the y-intercept is 1."}, "hamster fibroblasts": {"test_system": "hamster fibroblasts", "details": "predominantly nuclear lead-212 vs predominantly cytoplasmic polonium-210; cited from earlier work"}},
  "note": "“Also recorded” adds a separate entry of the source.",
  "data": [
    {"molecule": "COc1cc(Cc2cnc(N)nc2N)cc([At])c1OC", "note": "[[^211At]At-TMP]", "values": [
      {"measurement": "relative cytotoxicity with reference to cytoplasmic eDHFR", "setting": "I45 cells; I45, DNA-bound", "result": 10},
      {"measurement": "RBE", "setting": "I45 cells; I45, DNA-bound", "result": 3.1},
      {"measurement": "cytotoxicity, membrane-bound compared to cytoplasmic eDHFR", "setting": "I45 cells; I45, P=0.005", "result": "higher cytotoxicity compared to cytoplasmic eDHFR"},
      {"measurement": "relative cytotoxicity with reference to cytoplasmic eDHFR", "setting": "I45 cells; I45, membrane-bound", "result": 2.8},
      {"measurement": "RBE", "setting": "I45 cells; I45, membrane-bound", "result": 3.5},
      {"measurement": "relative cytotoxicity with reference to cytoplasmic eDHFR", "setting": "I45 cells; I45, nuclear", "result": 7.4},
      {"measurement": "RBE", "setting": "I45 cells; I45, nuclear", "result": 2.3},
      {"measurement": "relative cytotoxicity with reference to cytoplasmic eDHFR", "setting": "SKOV3 cells; SKOV3, DNA-bound", "result": 13},
      {"measurement": "RBE", "setting": "SKOV3 cells; SKOV3, DNA-bound", "result": 3.2},
      {"measurement": "relative cytotoxicity with reference to cytoplasmic eDHFR", "setting": "SKOV3 cells; SKOV3, membrane-bound", "result": 1.0},
      {"measurement": "RBE", "setting": "SKOV3 cells; SKOV3, membrane-bound", "result": 1.4},
      {"measurement": "relative cytotoxicity with reference to cytoplasmic eDHFR", "setting": "SKOV3 cells; SKOV3, nuclear", "result": 8.5},
      {"measurement": "RBE", "setting": "SKOV3 cells; SKOV3, nuclear", "result": 2.0},
      {"measurement": "cytotoxicity in eDHFR-expressing compared to wild-type cells", "setting": "I45 and SKOV3 cells; 72 h", "result": "significantly higher cytotoxicity"},
      {"measurement": "cytotoxicity per bound decays/cell, DNA-bound and nuclear eDHFR", "setting": "I45 and SKOV3 cells; DNA-bound P=0.017 I45, P=0.012 SKOV3, nuclear P=0.0006 I45, P=0.004 SKOV3", "result": "the highest cytotoxicity was observed with DNA-bound eDHFR (P=0.017 in I45 and P=0.012 in SKOV3), followed by nuclear eDHFR"},
      {"measurement": "pharmacologic cytotoxicity", "setting": "I45 and SKOV3 cells; up to 34 μM (so in the source)", "result": "absence of pharmacologic cytotoxicity"},
      {"measurement": "difference in cytotoxicity wild-type vs eDHFR-expressing, blocked", "setting": "I45 and SKOV3 cells; with 10 μM cold TMP", "result": "disappearance; also recorded: comparable across the wild-type and eDHFR-YFP-expressing cells"},
      {"measurement": "in vitro stability in aqueous media", "setting": "[1]", "result": "stable at 37 °C in aqueous media"},
      {"measurement": "binding affinity compared to [^125I]I-TMP", "setting": "eDHFR-YFP; I45 and SKOV3 cells", "result": "lower binding affinity"},
      {"measurement": "Kd", "setting": "eDHFR-YFP; I45 and SKOV3 cells", "result": "2.5 to 4.8", "unit": "nM"},
      {"measurement": "Kd", "setting": "eDHFR-YFP; I45 cells", "result": "4.8 ± 0.1", "unit": "nM"},
      {"measurement": "Kd", "setting": "eDHFR-YFP; SKOV3 cells", "result": "2.5 ± 0.2", "unit": "nM"}
    ]},
    {"molecule": "lead-212", "values": [
      {"measurement": "RBE relative to gamma irradiation", "setting": "hamster fibroblasts", "result": 4}
    ]}
  ]
}
